This note sets out measurements from patent US10736883B2, “Triazole furan compounds as agonists of the APJ receptor” (AMGEN INC., priority 2016, dated 2020).

The target in this test is APJ receptor (Homo sapiens (Human), UniProt P35414). The test is described as follows: [35S]GTPγS binding assay on membranes from CHO cells stably expressing human APJ receptor. The format is biochemical. Particulars: membranes of CHO cells stably expressing human APJ receptor, means of several independent experiments, read-out: Activity hAPJ SPA EC50 IP. Summed up:
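Membranes from CHO cells stably expressing human APJ were incubated with 0.2 nM [35S]GTPγS and ligands for 90 min at RT in 20 mM HEPES pH 7.5, 5 mM MgCl2, 200 mM NaCl, 3 μM GDP, 0.1% BSA with WGA PS beads. Nonspecific binding was set with 100 μM GTPγS. EC50 came from non-linear regression.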

APJ receptor, sequence (P35414 whole entry): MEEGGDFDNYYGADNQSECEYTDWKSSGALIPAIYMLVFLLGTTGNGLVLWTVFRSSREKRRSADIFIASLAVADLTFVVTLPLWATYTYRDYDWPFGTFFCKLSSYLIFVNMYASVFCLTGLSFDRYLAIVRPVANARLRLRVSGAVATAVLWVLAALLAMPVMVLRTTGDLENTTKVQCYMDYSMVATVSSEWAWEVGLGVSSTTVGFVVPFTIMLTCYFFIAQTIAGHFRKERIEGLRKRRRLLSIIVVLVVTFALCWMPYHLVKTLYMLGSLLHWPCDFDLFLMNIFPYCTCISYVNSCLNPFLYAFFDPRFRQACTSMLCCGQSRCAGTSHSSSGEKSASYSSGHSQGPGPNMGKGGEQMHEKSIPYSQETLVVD

For the molecule `COc1cccc(OC)c1-n1c(NS(=O)(=O)[C@H](C)[C@H](O)c2ccccn2)nnc1-c1ccc(C)o1` (stereo in doubt) [Example 90.0, (1R,2R)-N-(4-(2,6-dimethoxyphenyl)-5-(5-methylfuran-2-yl)-4H-1,2,4-triazol-3-yl)-1-hydroxy-1-(pyridin-2-yl)propane-2-sulfonamide compound and (1S,2S)-N-(4-(2,6-dimethoxyphenyl)-5-(5-methylfuran-2-yl)-4H-1,2,4-triazol-3-yl)-1-hydroxy-1-(pyridin-2-yl)propane-2-sulfonamide], the EC50 (as a rule, the concentration at which the effect is half-maximal) is 3.9 nM. Take `COc1cccc(OC)c1-n1c(NS(=O)(=O)[C@H](C)[C@H](O)c2cccc3nccn23)nnc1-c1ccc(C)o1` (racemic) [Example 306.0, (1R,2R)—N-(4-(2,6-Dimethoxyphenyl)-5-(5-methyl-2-furanyl)-4H-1,2,4-triazol-3-yl)-1-hydroxy-1-imidazo[1,2-a]pyridin-5-yl-2-propanesulfonamide and (1S,2S)—N-(4-(2,6-dimethoxyphenyl)-5-(5-methyl-2-furanyl)-4H-1,2,4-triazol-3-yl)-1-hydroxy-1-imidazo[1,2-a]pyridin-5-yl-2-propanesulfonamide]: the EC50 is 18 nM. `COc1ncnc(OC)c1-n1c(NS(=O)(=O)[C@@H](C)[C@@H](OC(C)C)c2ncc(C)cn2)nnc1-c1ccc(C)o1` [Example 401.0, (1S,2S)-N-(4-(4,6-dimethoxypyrimidin-5-yl)-5-(5-methylfuran-2-yl)-4H-1,2,4-triazol-3-yl)-1-isopropoxy-1-(5-methylpyrimidin-2-yl)propane-2-sulfonamide]: the EC50 is 0.53 nM. For `CCc1ccc(-c2nnc(NS(=O)(=O)[C@@H](C)Cc3ncc(F)cn3)n2-c2c(OC)cccc2OC)o1` (single isomer, unassigned) [Example 97.0, (2S)—N-(4-(2,6-Dimethoxyphenyl)-5-(5-ethyl-2-furanyl)-4H-1,2,4-triazol-3-yl)-1-(5-fluoro-2-pyrimidinyl)-2-propanesulfonamide or (2R)—N-(4-(2,6-dimethoxyphenyl)-5-(5-ethyl-2-furanyl)-4H-1,2,4-triazol-3-yl)-1-(5-fluoro-2-pyrimidinyl)-2-propanesulfonamide], the EC50 came to 0.4 nM.

Take `COc1cccc(OC)c1-n1c(NS(=O)(=O)[C@@H](C)Cc2cnc(C)cn2)nnc1-c1ccc(C)o1` (single isomer, unassigned) [Example 38.0, (2S)—N-(4-(2,6-dimethoxyphenyl)-5-(5-methyl-2-furanyl)-4H-1,2,4-triazol-3-yl)-1-(5-methyl-2-pyrazinyl)-2-propanesulfonamide or (2R)—N-(4-(2,6-dimethoxyphenyl)-5-(5-methyl-2-furanyl)-4H-1,2,4-triazol-3-yl)-1-(5-methyl-2-pyrazinyl)-2-propanesulfonamide]: the EC50 was determined as 3.8 nM. To `COC[C@H]1CCCC(=O)N1C[C@@H](C)S(=O)(=O)Nc1nnc(-c2ccc(C)o2)n1-c1c(OC)cccc1OC` (single isomer, unassigned) [Example 150.0] belongs 0.22 nM; to `COc1cccc(OC)c1-n1c(NS(=O)(=O)[C@@H](C)[C@H](O)c2cccc3ccnn23)nnc1-c1ccc(C)o1` (single isomer, unassigned) [Example 296.0, (1R,2S)—N-(4-(2,6-Dimethoxyphenyl)-5-(5-methyl-2-furanyl)-4H-1,2,4-triazol-3-yl)-1-hydroxy-1-pyrazolo[1,5-a]pyridin-7-yl-2-propanesulfonamide or (1S,2R)—N-(4-(2,6-dimethoxyphenyl)-5-(5-methyl-2-furanyl)-4H-1,2,4-triazol-3-yl)-1-hydroxy-1-pyrazolo[1,5-a]pyridin-7-yl-2-propanesulfonamide], 6.8 nM. To `COc1cccc(OC)c1-n1c(NS(=O)(=O)[C@@H]2C[C@H](C#N)CN(c3ncc(F)cn3)C2)nnc1-c1ccc(C)o1` (single isomer, unassigned) [Example 174.0, (3R,5S)-5-Cyano-N-(4-(2,6-dimethoxyphenyl)-5-(5-methyl-2-furanyl)-4H-1,2,4-triazol-3-yl)-1-(5-fluoro-2-pyrimidinyl)-3-piperidinesulfonamide or (3S,5R)-5-cyano-N-(4-(2,6-dimethoxyphenyl)-5-(5-methyl-2-furanyl)-4H-1,2,4-triazol-3-yl)-1-(5-fluoro-2-pyrimidinyl)-3-piperidinesulfonamide] belongs 1.9 nM. On to `COC[C@@H](Cc1ncc(F)cn1)S(=O)(=O)Nc1nnc(-c2ccc(C)o2)n1-c1c(OC)cccc1OC` (single isomer, unassigned) [Example 72.0, (2R)—N-(4-(2,6-Dimethoxyphenyl)-5-(5-methyl-2-furanyl)-4H-1,2,4-triazol-3-yl)-1-(5-fluoro-2-pyrimidinyl)-3-methoxy-2-propanesulfonamide or (2S)—N-(4-(2,6-dimethoxyphenyl)-5-(5-methyl-2-furanyl)-4H-1,2,4-triazol-3-yl)-1-(5-fluoro-2-pyrimidinyl)-3-methoxy-2-propanesulfonamide], for which the EC50 stood at 0.48 nM. In the case of `COc1cccc(OC)c1-n1c(NS(=O)(=O)[C@@H](C)Cc2ccc(Cl)cn2)nnc1-c1ccco1` (racemic) [Example 14.0, (2R)-1-(5-chloro-2-pyridinyl)-N-(4-(2,6-dimethoxyphenyl)-5-(2-furanyl)-4H-1,2,4-triazol-3-yl)-2-propanesulfonamide and (2S)-1-(5-chloro-2-pyridinyl)-N-(4-(2,6-dimethoxyphenyl)-5-(2-furanyl)-4H-1,2,4-triazol-3-yl)-2-propanesulfonamide], the EC50 stood at 0.2 nM. To `COc1ccc(-n2c(NS(=O)(=O)[C@@H](C)Cc3ncc(F)cn3)nnc2-c2ccco2)c(OC)c1` (mixture of isomers) [Example 315.0, (2R)—N-(4-(2,4-Dimethoxyphenyl)-5-(2-furanyl)-4H-1,2,4-triazol-3-yl)-1-(5-fluoro-2-pyrimidinyl)-2-propanesulfonamide and (2S)—N-(4-(2,4-dimethoxyphenyl)-5-(2-furanyl)-4H-1,2,4-triazol-3-yl)-1-(5-fluoro-2-pyrimidinyl)-2-propanesulfonamide] belongs 270 nM.

With `COc1ncnc(OC)c1-n1c(NS(=O)(=O)[C@@H](C)[C@H](C)c2ncc(C#N)cn2)nnc1-c1ccc(C)o1` [Example 397.0, (2S,3R)-3-(5-Cyano-2-pyrimidinyl)-N-(4-(4,6-dimethoxy-5-pyrimidinyl)-5-(5-methyl-2-furanyl)-4H-1,2,4-triazol-3-yl)-2-butanesulfonamide], the EC50 is 0.51 nM. To `COCC(COC)n1c(NS(=O)(=O)[C@@H](C)[C@H](OC)c2ncc(Cl)cn2)nnc1-c1ccc(C)o1` [Example 387.0, (1R,2S)-1-(5-chloro-2-pyrimidinyl)-N-(4-(1,3-dimethoxy-2-propanyl)-5-(5-methyl-2-furanyl)-4H-1,2,4-triazol-3-yl)-1-methoxy-2-propanesulfonamide] belongs 2.1 nM. As to `COc1cccc(OC)c1-n1c(NS(=O)(=O)C[C@](C)(O)c2ncc(C#N)cn2)nnc1-c1ccc(C)o1` (single isomer, unassigned) [Example 233.0, (R)-2-(5-Cyanopyrimidin-2-yl)-N-(4-(2,6-dimethoxyphenyl)-5-(5-methylfuran-2-yl)-4H-1,2,4-triazol-3-yl)-2-hydroxypropane-1-sulfonamide or (S)-2-(5-cyanopyrimidin-2-yl)-N-(4-(2,6-dimethoxyphenyl)-5-(5-methylfuran-2-yl)-4H-1,2,4-triazol-3-yl)-2-hydroxypropane-1-sulfonamide], the EC50 was found to be 0.5 nM. Turning to `COc1cccc(OC)c1-n1c(NS(=O)(=O)[C@H](C)Cc2ncc(F)cn2)nnc1-c1cc(C)c(C)o1` (single isomer, unassigned) [Example 91.0, (R)—N-(4-(2,6-Dimethoxyphenyl)-5-(4,5-dimethylfuran-2-yl)-4H-1,2,4-triazol-3-yl)-1-(5-fluoropyrimidin-2-yl)propane-2-sulfonamide or (S)—N-(4-(2,6-dimethoxyphenyl)-5-(4,5-dimethylfuran-2-yl)-4H-1,2,4-triazol-3-yl)-1-(5-fluoropyrimidin-2-yl)propane-2-sulfonamide], the EC50 turned out to be 4.2 nM. Take `COC[C@@H](Cc1ncc(F)cn1)S(=O)(=O)Nc1nnc(-c2ccc(C)o2)n1-c1c(OC)cccc1OC` (single isomer, unassigned) [Example 78.0, (2R)—N-(4-(2,6-Dimethoxyphenyl)-5-(5-methyl-2-furanyl)-4H-1,2,4-triazol-3-yl)-1-(5-fluoro-2-pyrimidinyl)-3-methoxy-2-propanesulfonamide or (2S)—N-(4-(2,6-dimethoxyphenyl)-5-(5-methyl-2-furanyl)-4H-1,2,4-triazol-3-yl)-1-(5-fluoro-2-pyrimidinyl)-3-methoxy-2-propanesulfonamide]: the EC50 turned out to be 0.77 nM. Regarding `COc1cccc(OC)c1-n1c(NS(=O)(=O)[C@@H](C)[C@@H](O)c2ccc(C)cn2)nnc1-c1ccc(C)o1` (single isomer, unassigned) [Example 63.0], the EC50 was found to be 0.24 nM. Regarding `COc1cccc(OC)c1-n1c(NS(=O)(=O)[C@H]2C[C@@H](O)CN(c3ncc(Cl)cn3)C2)nnc1-c1ccc(C)o1` (racemic) [Example 328.0, (3S,5R)-1-(5-Chloro-2-pyrimidinyl)-N-(4-(2,6-dimethoxyphenyl)-5-(5-methyl-2-furanyl)-4H-1,2,4-triazol-3-yl)-5-hydroxy-3-piperidinesulfonamide and (3R,5S)-1-(5-chloro-2-pyrimidinyl)-N-(4-(2,6-dimethoxyphenyl)-5-(5-methyl-2-furanyl)-4H-1,2,4-triazol-3-yl)-5-hydroxy-3-piperidinesulfonamide], the EC50 came to 0.3 nM.
